How the values were obtained:
Assay type in all cases: in vivo
Zymoseptoria tritici = test: Test A: preventive spray on wheat seedlings, wheat leaf blotch disease rating; conditions: 100 = 100% disease control, 0 = no control; for pest or weed control at 50 ppm: Zymoseptoria tritici, 456 h
Description: (§1) General protocol for preparing test suspensions for Tests A-F: the test compounds were first dissolved in acetone in an amount equal to 3% of the final volume and then suspended at the desired concentration (in ppm) in acetone and purified water (50/50 mix by volume) containing 50 to 250 ppm of the surfactant PEG400 (polyhydric alcohol esters). The resulting test suspensions were then used in Tests A-F.
The test solution was sprayed to the point of run-off on wheat seedlings. The following day the seedlings were inoculated with a spore suspension of Zymoseptoria tritici (the causal agent of wheat leaf blotch) and incubated in a saturated atmosphere at 24° C. for 48 h, and then moved to a growth chamber at 20° C. for 17 days, after which time disease ratings were made. […]

[1] = tested on: Puccinia recondita f. sp. Tritici; test: Test B: preventive spray on wheat seedlings, wheat leaf rust disease rating; conditions: 100 = 100% disease control, 0 = no control; for pest or weed control at 50 ppm: Puccinia recondita, 192 h
Description: as §1
The test solution was sprayed to the point of run-off on wheat seedlings. The following day the seedlings were inoculated with a spore suspension of Puccinia recondita f. sp. Tritici (the causal agent of wheat leaf rust) and incubated in a saturated atmosphere at 20° C. for 24 h, and then moved to a growth chamber at 20° C. for 7 days, after which time disease ratings were made.
(§2) The test suspension was sprayed to the point of run-off on tomato seedlings. The following day the seedlings were inoculated with a spore suspension of Alternaria solani (the causal agent of tomato early blight) and incubated in a saturated atmosphere at 27° C. for 48 h, and then moved to a growth chamber at 20° C. for 3 days, after which time visual disease ratings were made. A rating of 100 indicates 100% disease control and a rating of 0 indicates no disease control (relative to the controls). A dash (-) indicates the compound was not tested.

[2] = tested on: Blumeria graminis f. sp. Tritici; test: Test C: preventive spray on wheat seedlings, wheat powdery mildew disease rating; conditions: 100 = 100% disease control, 0 = no control; for pest or weed control at 50 ppm: Blumeria graminis, 192 h
Description: as §1
The test suspension was sprayed to the point of run-off on wheat seedlings. The following day the seedlings were inoculated with a spore dust of Blumeria graminis f. sp. Tritici, (also known as Erysiphe graminis f. sp. Tritici, the causal agent of wheat powdery mildew) and incubated in a growth chamber at 20° C. for 8 days, after which time visual disease ratings were made.
as §2

Phakopsora pachyrhizi = test: Test D: preventive spray on soybean seedlings, Asian soybean rust disease rating; conditions: 100 = 100% disease control, 0 = no control; for pest or weed control at 50 ppm: Phakopsora pachyrhizi, 216 h
Description: as §1
The test solution was sprayed to the point of run-off on soybean seedlings. The following day the seedlings were inoculated with a spore suspension of Phakopsora pachyrhizi (the causal agent of Asian soybean rust) and incubated in a saturated atmosphere at 22° C. for 24 h and then moved to a growth chamber at 22° C. for 8 days, after which time visual disease ratings were made.
as §2

Botrytis cinerea = test: Test E: preventive spray on tomato seedlings, tomato Botrytis disease rating; conditions: 100 = 100% disease control, 0 = no control; for pest or weed control at 50 ppm: Botrytis cinerea, 120 h
Description: as §1
The test suspension was sprayed to the point of run-off on tomato seedlings. The following day the seedlings were inoculated with a spore suspension of Botrytis cinerea (the causal agent of tomato Botrytis) and incubated in a saturated atmosphere at 20° C. for 48 h, and then moved to a growth chamber at 24° C. for 3 days, after which time visual disease ratings were made.
as §2

Alternaria solani = test: Test F: preventive spray on tomato seedlings, tomato early blight disease rating; conditions: 100 = 100% disease control, 0 = no control; for pest or weed control at 50 ppm: Alternaria solani, 120 h
Description: as §1, §2

Compound | Test A disease control rating (Zymoseptoria tritici; 50 ppm) [%] | Test B disease control rating ([1]; 50 ppm) [%] | Test C disease control rating ([2]; 50 ppm) [%] | Test D disease control rating (Phakopsora pachyrhizi; 50 ppm) [%] | Test E disease control rating (Botrytis cinerea; 50 ppm) [%] | Test F disease control rating (Alternaria solani; 50 ppm) [%] | further results
Cn1nc(-c2ccsc2)c(-c2c(F)cccc2F)cc1=O [Compound 1] |  |  |  |  |  |  | Test A disease control rating (Zymoseptoria tritici; 250 ppm): 0%; Test B disease control rating ([1]; 250 ppm): 0%; Test C disease control rating ([2]; 250 ppm): 0%; Test D disease control rating (Phakopsora pachyrhizi; 250 ppm): 65%; Test E disease control rating (Botrytis cinerea; 250 ppm): 0%; Test F disease control rating (Alternaria solani; 250 ppm): 0%
Cn1nc(-c2cccnc2)c(-c2c(F)cccc2F)cc1=O [Compound 2] | 0 | 0 | 0 | 0 | 0 | 0 | 
Cn1nc(-c2ccoc2)c(-c2c(F)cccc2F)cc1=O [Compound 3] |  |  |  |  |  |  | Test A disease control rating (Zymoseptoria tritici; 250 ppm): 0%; Test B disease control rating ([1]; 250 ppm): 0%; Test C disease control rating ([2]; 250 ppm): 0%; Test D disease control rating (Phakopsora pachyrhizi; 250 ppm): 38%; Test E disease control rating (Botrytis cinerea; 250 ppm): 0%; Test F disease control rating (Alternaria solani; 250 ppm): 0%
Cc1ccncc1-c1nn(C)c(=O)c(Cl)c1-c1ccc(F)cc1Cl [Compound 4, 4-chloro-5-(2-chloro-4-fluorophenyl)-2-methyl-6-(4-methyl-3-pyridinyl)-3(2H)-pyridazinone] |  |  |  |  |  |  | pest or weed control at 50 ppm (Zymoseptoria tritici; 50 ppm): 100%; pest or weed control at 50 ppm ([1]; 50 ppm): 89%; pest or weed control at 50 ppm ([2]; 50 ppm): 89%; pest or weed control at 50 ppm (Phakopsora pachyrhizi; 50 ppm): 38%; pest or weed control at 50 ppm (Botrytis cinerea; 50 ppm): 65%; pest or weed control at 50 ppm (Alternaria solani; 50 ppm): 70%
Cc1c(-c2ccc(F)cc2Cl)c(-c2ccsc2)nn(C)c1=O [Compound 5] | 100 | 74 | 96 | 21 | 93 | 91 | 
Cc1c(-c2ccc(F)cc2Cl)c(-c2ccsc2Br)nn(C)c1=O [Compound 6] | 100 | 100 | 99 | 78 | 91 | 99 | 
Cc1c(-c2ccc(F)cc2Cl)c(-c2ccsc2Cl)nn(C)c1=O [Compound 7, 5-(2-chloro-4-fluorophenyl)-6-(2-chloro-3-thienyl)-2,4-dimethyl-3(2H)-pyridazinone] |  |  |  |  |  |  | pest or weed control at 50 ppm (Zymoseptoria tritici; 50 ppm): 99%; pest or weed control at 50 ppm ([1]; 50 ppm): 100%; pest or weed control at 50 ppm ([2]; 50 ppm): 99%; pest or weed control at 50 ppm (Phakopsora pachyrhizi; 50 ppm): 100%; pest or weed control at 50 ppm (Botrytis cinerea; 50 ppm): 97%; pest or weed control at 50 ppm (Alternaria solani; 50 ppm): 99%
Cc1sccc1-c1nn(C)c(=O)c(C)c1-c1ccc(F)cc1Cl [Compound 8] | 99 | 100 | 99 | 96 | 94 | 99 | 
Cc1c(-c2ccc(F)cc2Cl)c(-c2cccs2)nn(C)c1=O [Compound 9] | 100 | 79 | 95 | 8 | 98 | 16 | 
Cc1c(-c2ccc(F)cc2Cl)c(-c2ccc(Cl)s2)nn(C)c1=O [Compound 10] | 100 | 68 | 96 | 12 | 96 | 16 | 
Cc1cnn(-c2nn(C)c(=O)c(C)c2-c2ccc(F)cc2Cl)c1 [Compound 11] | 70 | 0 | 97 | 0 | 91 | 24 | 
Cc1cnn(-c2nn(C)c(=O)c(C)c2-c2ccccc2Cl)c1 [Compound 12] | 0 | 0 | 0 | 17 | 0 | 15 | 
Cc1c(-c2ccc(F)cc2Cl)c(-c2cc(Br)sc2Br)nn(C)c1=O [Compound 13] | 99 | 80 | 73 | 0 | 90 | 0 | 
Cc1cscc1-c1nn(C)c(=O)c(C)c1-c1ccc(F)cc1Cl [Compound 14] | 100 | 99 | 97 | 72 | 96 | 94 | 
Cc1c(-c2nn(C)c(=O)c(C)c2-c2ccc(F)cc2Cl)csc1Br [Compound 15] | 100 | 100 | 99 | 24 | 92 | 99 | 
Cc1c(-c2ccc(F)cc2Cl)c(-c2sc(Br)cc2Br)nn(C)c1=O [Compound 16] | 99 | 68 | 64 | 0 | 37 | 0 | 
Cc1c(-c2ccc(F)cc2Cl)c(-c2ccc(Br)s2)nn(C)c1=O [Compound 17] | 99 | 68 | 56 | 12 | 39 | 0 | 
COc1ccc(Cl)c(-c2nn(C)c(=O)c(C)c2-c2ccsc2C)c1 [Compound 18] | 96 | 92 | 93 | 13 | 97 | 0 | 
Cc1c(-c2ccc(F)cc2Cl)c(-c2ccn(C)n2)nn(C)c1=O [Compound 20] | 0 | 19 | 72 | 0 | 33 | 0 | 
COc1ccc(Cl)c(-c2nn(C)c(=O)c(C)c2-c2cnccc2C)c1 [Compound 21, 6-(2-chloro-5-methoxyphenyl)-2,4-dimethyl-5-(4-methyl-3-pyridinyl)-3(2H)-pyridazinone] |  |  |  |  |  |  | pest or weed control at 50 ppm (Zymoseptoria tritici; 50 ppm): 54%; pest or weed control at 50 ppm ([1]; 50 ppm): 68%; pest or weed control at 50 ppm ([2]; 50 ppm): 86%; pest or weed control at 50 ppm (Phakopsora pachyrhizi; 50 ppm): 25%; pest or weed control at 50 ppm (Botrytis cinerea; 50 ppm): 96%; pest or weed control at 50 ppm (Alternaria solani; 50 ppm): 0%
Cc1c(-c2ccc(F)cc2Cl)c(-c2nn(C)cc2Cl)nn(C)c1=O [Compound 22] | 94 | 93 | 98 | 53 | 94 | 0 | 
COc1cc(OC)cc(-n2nc(CO)c(=O)c(C)c2-c2ccc(F)cc2F)c1 [Compound 23, 6-(2,4-difluorophenyl)-1-(3,5-dimethoxyphenyl)-3-(hydroxymethyl)-5-methyl-4(1H)-pyridazinone] |  |  |  |  |  |  | pest or weed control at 50 ppm (Zymoseptoria tritici; 50 ppm): 3%; pest or weed control at 50 ppm ([1]; 50 ppm): 68%; pest or weed control at 50 ppm ([2]; 50 ppm): 0%; pest or weed control at 50 ppm (Phakopsora pachyrhizi; 50 ppm): 43%; pest or weed control at 50 ppm (Botrytis cinerea; 50 ppm): 46%; pest or weed control at 50 ppm (Alternaria solani; 50 ppm): 53%
COc1cc(-c2cc(C#N)c(=O)n(C)c2-c2ccc(F)cc2Cl)ccc1Cl [Compound 160] |  |  |  |  |  |  | Test A disease control rating (Zymoseptoria tritici; 250 ppm): 46%; Test B disease control rating ([1]; 250 ppm): 80%; Test C disease control rating ([2]; 250 ppm): 0%; Test D disease control rating (Phakopsora pachyrhizi; 250 ppm): 0%; Test E disease control rating (Botrytis cinerea; 250 ppm): 94%

Reference: US20240308968A1, “FUNGICIDAL SUBSTITUTED HETEROCYCLES” (FMC Corporation, priority 2021, published 2024)
